According to patent US12458659B2, “Methods for treating macrophage-mediated diseases, and methods of identifying agents useful therefore” (The Regents of the University of California, priority 2019, dated 2025):

Assays:
[1] = test system: MWS Nlrp3^A350VneoRCreT mutant mice; test: Muckle Wells Syndrome mice; assay type: in vivo, mouse; details: 2.5 mg/kg IP BID for 15 days
Description: Muckle Wells Syndrome Mice—Sixteen- to twenty-two-week-old male MWS Nlrp3^A350VneoRCreT mutant mice were subjected to MN58b (2.5 mg/kg) or vehicle IP injection BID daily for 15 days. Tamoxifen (50 mg/kg) was administered daily via IP for 4 days after first MN58b (or vehicle) treatment, and once more on day 7 to maintain Cre expression. At the endpoint, blood, spleen and liver were collected for analysis. Complete blood counts were preformed using a ScilVet Animal Blood Counter (ABX Diagnostics). Livers were paraffin embedded and hematoxylin and eosine staining was performed to assess liver histology. None of the animals was excluded from the analysis and liver histology was blind examined.

C57BL/6 mice [2] = test: LPS-induced septic shock; assay type: in vivo, mouse
Description: LPS-induced septic shock and air pouch model—Eight- to twelve-week-old C57BL/6 mice were subjected to LPS-induced septic shock as described (Zhong et al., 2016c). Briefly, 50 mg/kg LPS was intraperitoneal (IP) injected, and when indicated, animals were pretreated with the ChoKα inhibitor MN58B 2.5 mg/kg or vehicle (sodium chloride) via IP injection daily, starting three days before LPS challenge. Mice were analyzed for survival and circulating cytokines (3 hr after LPS challenge). None of the animals was excluded from the analysis.

C57BL/6 mice [3] = test: Synovium-like air pouch gout model (MSU crystals); assay type: in vivo, mouse
Description: Synovium-like air pouch gout model—Subcutaneous air pouches were generated by repeated injection of sterile air into 8-12-week old C57BL/6 mice to create an accessible space that develops a synovium-like membrane within 7 days as described (Wang et al., 2016). Afterward, mice were treated with MN58b IP (2.5 mg/kg) or vehicle, 24 hr before injecting lml MSU crystals (3 mg/ml) into the air pouch. Pouch tissue and fluids were harvested 8 hr later for analysis. None of the animals was excluded from the analysis.

Slc44a1/CTL1 = Slc44a1/CTL1 induction by LPS in BMDM (QPCR); assay type: cell-based, mouse; details: BMS345541-pretreated BMDM treated with LPS
Description: RNA Isolation and Quantitative Real-Time PCT (QPCR)—RNA was extracted using AllPrep DNA/RNA Mini kit, and cDNA was synthesized using SUPERSCRIPT™ VILO™ cDNA Synthesis Kit. mRNA expression was determined by QPCR in a CFX96 thermal cycler (Biorad) as described (Zhong et al., 2016c). Data are presented in arbitrary units and were calculated by 2^(-delta delta CT) method. Primer sequences were obtained from the NIH qPrimerDepot (mouseprimerdepot.nci.nih.gov) and provided by Integrated DNA technologies, as set forth below.

CTL1 [4] = test: CTL1 protein expression in LPS stimulated BMDM (immunoblot); assay type: cell-based, mouse; details: LPS stimulation
CTL1, sequence (Q6X893 whole entry): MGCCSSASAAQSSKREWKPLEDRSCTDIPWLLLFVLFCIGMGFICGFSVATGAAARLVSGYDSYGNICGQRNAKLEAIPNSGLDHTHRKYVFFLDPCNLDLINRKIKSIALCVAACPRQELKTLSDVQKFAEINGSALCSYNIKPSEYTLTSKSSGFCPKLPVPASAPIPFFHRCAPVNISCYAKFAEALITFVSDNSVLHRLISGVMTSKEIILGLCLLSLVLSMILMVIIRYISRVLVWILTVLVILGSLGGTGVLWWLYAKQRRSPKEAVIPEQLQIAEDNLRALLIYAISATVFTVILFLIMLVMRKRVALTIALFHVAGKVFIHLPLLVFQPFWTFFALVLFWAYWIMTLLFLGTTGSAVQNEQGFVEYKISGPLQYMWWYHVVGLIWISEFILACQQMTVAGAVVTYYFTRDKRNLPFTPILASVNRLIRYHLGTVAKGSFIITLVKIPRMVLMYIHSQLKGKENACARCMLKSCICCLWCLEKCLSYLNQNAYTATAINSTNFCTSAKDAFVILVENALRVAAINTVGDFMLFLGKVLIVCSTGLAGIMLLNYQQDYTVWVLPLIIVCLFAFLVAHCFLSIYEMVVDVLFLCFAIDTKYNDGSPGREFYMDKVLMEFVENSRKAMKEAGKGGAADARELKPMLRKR
Description: Macrophage culture and stimulation—Femurs and tibias from C57BL/6 mice, Ampkα1^−/− mice, and Il10rb^−/− mice at 6-10 weeks of age were used to generate bone-marrow-derived macrophages (BMDM) as described (Hornung et al., 2008). Macrophages were cultured in DMEM supplemented with 10% FBS, 20% L929-cell conditioned medium, and 100 U/ml penicillin-streptomycin for 7-10 days. Bone marrow was isolated from MWS Nlrp3^A350VneoRCreT, FCAS Nlrp3^L351PneoCreT and NOMID Nlrp3^D301NneoCreT conditional knock-in mice (Bonar et al., 2012; Brydges et al., 2009), and were allowed to differentiate over 7 days with addition of fresh mouse recombinant GMCSF every three days. (Z)-4-hydroxitamoxifen at 0.4 μg/ml was added to cells 24 hr prior to treatment to induce the mutant Nlrp3 allele. Immortalized mouse BMDM were grown in DMEM supplemented with 10% FBS and 100 U/ml penicillin-streptomycin. All cells were grown at 37° C. with 5% CO2. […]
(§1) Protein Immunoblotting and ELISA—Mitochondria were isolated using Mitochondria Isolation kit. Whole cell lysates were prepared in NP40 buffer containing a protease inhibitor cocktail and a phosphatase inhibitor cocktail, and supernatants were analyzed by SDS-PAGE. […]

[5] = test system: choline mobilization via the Kennedy pathway; test: Choline, phosphocholine and phosphatidylcholine content of LPS-stimulated BMDM (NMR, MS); assay type: cell-based, mouse; details: BMDM, LPS 4 hr
Description: Choline and Phosphocholine Analysis by NMR—BMDM were treated with LPS for 4 hr and then were collected and processed for NMR analysis as described (Guma et al., 2015a; Tiziani et al., 2009). Polar metabolite isolation was performed using a modified Bligh-Dyer procedure (Wu et al., 2008). Extracts were dried using a CentriVap refrigerated vacuum concentrator (Labconco, Kansas City, MO, USA). Dried extracts were reconstituted in 100 mM phosphate buffer (pH 7.0) prepared in 10% H2O/90% D2O (Sigma) that contained 0.5 mM sodium 3-(trimethylsilyl)propionate-2,2,3,3,-d4 (TMSP) as the internal standard. One-dimensional ^1H NMR spectra were acquired on a Bruker Avance III 500 MHz with 1.7 mm TCI MicroCryoProbe system (Bruker BioSpin Corp., Billerica, MA) equipped with an autosampler at 300 K and processed as previously described (Lodi et al., 2017; Lu et al., 2017; Ludwig and Gunther, 2011). Metabolite assignment and quantification were performed using the Chenomx 8.2 NMR Suite (Chenomx Inc., Edmonton, Alberta, Canada), the Birmingham Metabolite Library (Ludwig et al., 2012), and the Human Metabolome Database (Wishart et al., 2012).
Total phosphatidylcholine and mitochondrial lipids analysis by mass spectrometry—Total phosphatydilcholine (PC) analysis was measured in RSM932A-pretreated BMDM stimulated with LPS for 4 hr, while mitochondrial lipids were measured in mitochondria isolated from BMDM cultured in control or choline deficient medium and subjected to different treatments for 24 hr. Samples were processed for UHPLC-MS/MS analysis and analysis was performed on a hybrid quadrupole-Orbitrap mass spectrometer (Q Exactive, Thermo Scientific, Bremen, Germany) coupled to an Accela 1250 UHPLC system equipped with a quaternary pump, vacuum degasser, and open autosampler with temperature controller (6° C.; Fisher Scientific, San Jose, CA, USA). […]

ChoKα = ChoKα levels after colchicine treatment; assay type: cell-based
CTL1 [6] = test: CTL1 levels after colchicine treatment; assay type: cell-based
NLRP3 inflammasome = test: IL-1β release by LPS-primed macrophages stimulated with NLRP3 activators (ELISA); assay type: cell-based, mouse; details: BMDM pretreated with A769662, LPS-primed, ATP and nigericin 40 min
Description: Macrophage culture and stimulation—Femurs and tibias from C57BL/6 mice, Ampkα1^−/− mice, and Il10rb^−/− mice at 6-10 weeks of age were used to generate bone-marrow-derived macrophages (BMDM) as described (Hornung et al., 2008). Macrophages were cultured in DMEM supplemented with 10% FBS, 20% L929-cell conditioned medium, and 100 U/ml penicillin-streptomycin for 7-10 days. Bone marrow was isolated from MWS Nlrp3^A350VneoRCreT, FCAS Nlrp3^L351PneoCreT and NOMID Nlrp3^D301NneoCreT conditional knock-in mice (Bonar et al., 2012; Brydges et al., 2009), and were allowed to differentiate over 7 days with addition of fresh mouse recombinant GMCSF every three days. (Z)-4-hydroxitamoxifen at 0.4 μg/ml was added to cells 24 hr prior to treatment to induce the mutant Nlrp3 allele. Immortalized mouse BMDM were grown in DMEM supplemented with 10% FBS and 100 U/ml penicillin-streptomycin. All cells were grown at 37° C. with 5% CO2. NLRP3 inflammasome activation was induced priming for 4 hr with ultrapure LPS (100 ng/ml) followed by treatment with the NLRP3 activators ATP (4 mM) and nigericin (10 μM) for 45 min, unless otherwise indicated, and monosodium urate (MSU) crystals (400 μg/ml) and 1,2-dioleoyl-3-trimethylammoniumpropane (DOTAP) liposomes (50 μg/ml) for 3 hr. In Nlrp3 mutant macrophages IL-1b production was induced by LPS treatment for 16 hr at 37° C., whereas FCAS macrophages were incubated at 32° C. without LPS addition. AIM2 inflammasome activation was induced by 4 hr LPS priming and transfection with lipofectamine 3000 and the AIM2 activator poly(dA:dT) (1 μg/ml) for 8 hr. For choline deprivation experiments, the cells were cultured in CMRL1066 medium with or without choline for 2-3 hr before priming with LPS and kept during the experiment.
as §1

CN(C)c1cc[n+](Cc2ccc(CCCCc3ccc(C[n+]4ccc(N(C)C)cc4)cc3)cc2)cc1.[Br-].[Br-] [MN58b]
MWS splenomegaly [1]: reduced | granulocytes [1]: reduction | liver size [1]: reduced | lymphocyte count [1]: without an effect | monocytes [1]: reduction | total white blood cells count [1]: reduction | LPS-induced death (C57BL/6 mice [2]; 2.5 mg/kg IP daily for 3 days before 50 mg/kg LPS IP): prevented | circulating IL-1β (C57BL/6 mice [2]; 2.5 mg/kg IP daily for 3 days before LPS, 3 hr after LPS): reduced | IL-6 production (C57BL/6 mice [2]; circulating, 3 hr after LPS): did not inhibit | TNF production (C57BL/6 mice [2]; circulating, 3 hr after LPS): did not inhibit | total leukocyte recruitment into the pouch (C57BL/6 mice [3]; 2.5 mg/kg 24 hr before MSU crystals): attenuated | production of IL-1β (C57BL/6 mice [3]; 2.5 mg/kg 24 hr before MSU crystals, pouch): reduced | reduction of IL-1β release (C57BL/6 mice [3]; 2.5 mg/kg IP 24 hr before MSU crystals, pouch harvested 8 hr later, p<0.01): 66% | reduction of MSU crystal-induced leukocyte recruitment (C57BL/6 mice [3]; 2.5 mg/kg IP 24 hr before MSU crystals, pouch harvested 8 hr later, p<0.05): 47%

Cc1ccc2nc(NCCN)c3ncc(C)n3c2c1 [BMS345541]
Slc44a1/CTL1 induction (Slc44a1/CTL1): blocked

lipopolysaccharide [LPS]
increase of CTL1 expression (CTL1 [4]): 6 fold | increase of phosphocholine ([5]; p<0.001): 559% | increase of intracellular choline ([5]; p<0.01): 238%

COc1cc2c(c(OC)c1OC)-c1ccc(OC)c(=O)cc1[C@@H](NC(C)=O)CC2 [colchicine]
reduction of ChoKα levels (ChoKα): 85% | reduction of CTL1 levels (CTL1 [6]): 90%

N#Cc1c(O)c2c(-c3ccc(-c4ccccc4O)cc3)csc2[nH]c1=O [A769662]
IL-1β production (NLRP3 inflammasome): significantly reduced
